According to patent US6150414A, “Compositions and methods for treating viral infections” (priority 1992, dated 2000):
Values joined by “and” are separate entries in the source; they are usually repeats but may differ in a detail not shown here. Equal entries are not always repeated. Where two headings read alike, the source gives them in different places.

How the values were obtained:
Friend Leukemia Virus [1] = test: FV-induced splenomegaly, PAC compounds in combination with AZT (Example 1(b)); format: in vivo, BALB/c mice; parameters: Spleen weight / Average Spleen Weight: unit not given here; conditions: for Spleen weight: single animal
Protocol: (§1) The effects of compositions according to the present invention on the increase in spleen size (splenomegaly) of BALB/c mice (Jackson Labs, Bar Harbor, ME) was examined. In these experiments, the virus (10^6 focus forming units--FFU) was inoculated intravenously and 100 micrograms of the compounds indicated in Table II were administered to the mice intraperitoneally 24 hours later. Each compound was administered once to two mice. The animals were sacrificed ten days later and their spleens weighed.
(§2) As used in Table II (and subsequent Tables of this Example l(a) and (b), "average percent inhibition" is calculated as follows: [formula] wherein "ASWNC" designates "average spleen weight of negative control"; "ASWE" designates "average spleen weight of experimental (treated) subject"; and "ASWPC" designates "average spleen weight of positive control". Average spleen weight is the numerical average of spleen weights of each experimental group (in Table II each such group includes two members).
The compounds of the present invention (100 micrograms per mouse) were also tested in combination with AZT (20 micrograms per mouse, twice a day) using otherwise the same methods as in Example 1(a) above. As representatives, compound #9 above (3-bromophenanthro (3,4-C), phenanthrene) and compound #10 (diindeno (1, 2, 3-CD/1', 2', 3'-IM) Perylene) were chosen. […] The compounds were administered i.p. either once or five times (once per day) alone or together with AZT (20 micrograms of AZT per mouse twice a day for five days?). Thus, in experiments where AZT was administered five times, a total of […] of AZT was received by each mouse (with a total of 500 micrograms of the PAC compound).

Friend Leukemia Virus [2] = test: Inhibition of Friend Leukemia Virus-induced splenomegaly in mice, compounds intraperitoneally 24 hours after virus (Example 1(a)); format: in vivo, BALB/c mice; parameters: Actual Spleen Weight / Average Spleen Weight: unit not given here; conditions: for inhibition in vivo at 0.1 mg / inhibition in vivo at 0.05 mg / inhibition in vivo at 0.2 mg: Mus musculus, ip; for Pooled Average % Inhibition: pooled over 50, 100, 200, 2 × 100 micrograms
Description: The effects of compositions according to the present invention on infection of mammals with Friend Leukemia Virus (FV) were examined.
Friend Leukemia Virus is an aggressive retrovirus which induces an acute erythroleukemia in sensitive strains of mice such as BALB/c and NIH swiss mice as described in Friend, C. J., Exp. Med. 105: 307-324, 1957; Friend, C. et al. Proc. Natl. Acad. Sci. USA 68: 378-383, 1971; Friend, C. et al. Natl. Cancer Inst. Mongr. 22: 508-552, 1966. The malignant transformation is the result of the combined activities of the Spleen Focus Forming Virus (SFFV) and the ecotropic Murine Friend Leukemia Helper Virus (F-MuLV). The acute erythroleukemia is characterized by hepatosplenomegaly (a marked increase in the size of the spleen and liver) and a severe anemia.
Friend Leukemia Virus was prepared by homogenizing the enlarged spleen of a mouse previously infected with FV, 10 days after intravenous virus injection. The spleen was homogenized in phosphate buffered saline in a volume equal to ten times the weight of the isolated spleen.
as §1
The present assay has been developed from similar assays using hypericin or pseudohypericin and employing higher numbers of experimental animals per group (e.g. 4 animals). It was discovered however that the specificity and sensitivity of this assay are such that an experimental group of two animals is of more than adequate predictive value.
as §2
In these experiments, the virus (10^6 focus forming units--FFU) was inoculated intravenously, and the indicated doses of the antiviral compounds of this invention were administered to the BALB/c mice intraperitoneally 24 hours later. The animals were then sacrificed ten days later and their spleens weighed.
Pseudohypericin was diluted in phosphate buffered saline with 1% ethanol.
An expanded series of experiments was next performed in which various concentrations (i.e. 50, 100, 200 and 2×100, i.e., 100 micrograms administered twice) of a different set of PAC compounds (numbers 16-29 and 30-36 in Table III below) were administered intraperitoneally each according to the same protocol described above. Compounds 16-29 all had 3-5 fused, aromatic rings and no side groups except for oxygen or hydroxyl groups, whereas compounds 30-36 all had 3 fused aromatic rings and side chains selected from the group of oxygen, hydroxyl and methyl.
When 2 doses of the compounds were given, the second dose was administered 24-48 hours after the first injection. The animals were infected and splenomegaly determined as above for the compounds in Table II. In Table III, "pooled average percent inhibition" is calculated by adding the average percent inhibition for each experiment with the same compound and dividing the sum by the number of experiments (i.e. the number 4). […]

[3] = 1X, 100 micrograms per mouse i.p.
[4] = 5X, 100 micrograms per mouse i.p. once per day
[5] = 100 micrograms i.p. once, 24 h after FV, Table II
[6] = read-out: Average Perdosage % Inhibition, dose 2 × 100 (micrograms) i.p., Table III
[7] = read-out: Average Perdosage % Inhibition, dose 50 (micrograms) i.p., Table III
[8] = read-out: Average Perdosage % Inhibition, dose 100 (micrograms) i.p., Table III
[9] = read-out: Average Perdosage % Inhibition, dose 200 (micrograms) i.p., Table III
[10] = dose 2 × 100 (micrograms) i.p., Table III
[11] = dose 50 (micrograms) i.p., Table III
[12] = dose 100 (micrograms) i.p., Table III
[13] = dose 200 (micrograms) i.p., Table III
[14] = dose 2 × 100 (micrograms) i.p., Table III, read-out: Average Perdosage % Inhibition
[15] = dose 50 (micrograms) i.p., Table III, read-out: Average Perdosage % Inhibition
[16] = dose 100 (micrograms) i.p., Table III, read-out: Average Perdosage % Inhibition
[17] = dose 200 (micrograms) i.p., Table III, read-out: Average Perdosage % Inhibition

Row | SMILES | % Inhibition (Friend Leukemia Virus [1]; [3]) [%] | Average Spleen Weight (Friend Leukemia Virus [1]; [3]) | Spleen weight (Friend Leukemia Virus [1]; [3]) | % Inhibition (Friend Leukemia Virus [1]; [4]) [%] | Average Spleen Weight (Friend Leukemia Virus [1]; [4]) | Spleen weight (Friend Leukemia Virus [1]; [4]) | Average Spleen Weight (Friend Leukemia Virus [2]; [5]) | inhibition in vivo at 0.1 mg (Friend Leukemia Virus [2]; [6]) [%] | inhibition in vivo at 0.05 mg (Friend Leukemia Virus [2]; [7]) [%] | inhibition in vivo at 0.1 mg (Friend Leukemia Virus [2]; [8]) [%] | inhibition in vivo at 0.2 mg (Friend Leukemia Virus [2]; [9]) [%] | Average Spleen Weight (Friend Leukemia Virus [2]; [10]) | Average Spleen Weight (Friend Leukemia Virus [2]; [11]) | Average Spleen Weight (Friend Leukemia Virus [2]; [12]) | Average Spleen Weight (Friend Leukemia Virus [2]; [13]) | Pooled Average % Inhibition (Friend Leukemia Virus [2]; Table III) [%] | inhibition in vivo at 0.1 mg (Friend Leukemia Virus [2]; [14]) [%] | inhibition in vivo at 0.05 mg (Friend Leukemia Virus [2]; [15]) [%] | inhibition in vivo at 0.1 mg (Friend Leukemia Virus [2]; [16]) [%] | inhibition in vivo at 0.2 mg (Friend Leukemia Virus [2]; [17]) [%] | further results
1 | Brc1cc2ccc3ccc4ccccc4c3c2c2c1ccc1ccccc12 [Compound 9, 3-Bromophenanthro(3,4-C)Phenanthrene] | 3 | 2.1074 | 2.0831 and 2.1317 | 24 | 1.681 | 1.6262 and 1.7363 | 0.8756 | – | – | – | – | – | – | – | – | – | – | – | – | – | inhibition of FV-induced splenomegaly / anti-retroviral activity (Friend Leukemia Virus [2]; Example 1(a)): weak anti-retroviral activity
2 | c1ccc2c(c1)-c1ccc3c4ccc5c6c(ccc(c7ccc-2c1c37)c64)-c1ccccc1-5 [Compound 10, Diindeno(1,2,3-CD/1',2',3'-IM)Perylene] | 22 | 1.724 | 1.7816 and 1.6664 | 46 | 1.2358 | 1.5771 and 0.8945 | 0.4767 | – | – | – | – | – | – | – | – | – | – | – | – | – | Average % Inhibition (Friend Leukemia Virus [2]; [5]): 44.3%; Average % Inhibition (Friend Leukemia Virus [2]; 100 micrograms i.p. once, 24 h after FV, Table II, listed as #10): > 40%; Actual Spleen Weight (Friend Leukemia Virus [2]; 100 micrograms i.p. once, 24 h after FV, Table II, single animal): 0.4809 and 0.4724
3 | Cc1ccc2cc3ccccc3cc2c1 [Compound 25, 2-Methylanthracene] | – | – | – | – | – | – | – | 29 | 26 | 37 | 28 | 1.1758 | 1.2104 | 1.0606 | 1.1904 | 30 | – | – | – | – | –
4 | c1ccc(C2=C(c3ccccc3)C(c3ccccc3)=C(c3ccccc3)C2)cc1 [Compound 26, 1,2,3,4-Tetraphenyl-1,3-cyclopentadiene] | – | – | – | – | – | – | – | – | – | – | – | 1.5966 | 1.1985 | 1.0280 | 1.1131 | 25 | 0 | 27 | 39 | 33 | –
5 | c1cc2cccc3c4cccc5cccc(c(c1)c23)c54 [Compound 27, Perylene] | – | – | – | – | – | – | – | 11 | 19 | 5 | 1 | 1.4342 | 1.3148 | 1.5227 | 1.6044 | 9 | – | – | – | – | –
6 | c1ccc2cc3cc4cc5ccccc5cc4cc3cc2c1 [Compound 28, Pentacene] | – | – | – | – | – | – | – | – | – | – | – | 1.4102 | 1.2780 | 1.5384 | 1.4278 | 12 | 13 | 22 | 4 | 11 | –
